# From paper PMC13327620, “A Deep‐Red‐Absorbing Osmium(II) Complex as a Photosensitizer for Photodynamic Therapy Inducing Immunogenic Cell Death” (Angewandte Chemie (International Ed. in English), 2026)
# Where two headings read alike, the source gives them in different places.
# What was measured:
# [1] = Photostability by UV-vis absorption in PBS with 10% FBS; assay type: physicochemical; conditions: 10% FBS in PBS, 50 μM
# Excerpt: Photostability is a crucial parameter for PSs, as it has a significant impact on their phototoxicity. Based on the results of our in vitro phototoxicity studies, and in view of future in vivo experiments, we decided to investigate the stability of Os2 and Ce6 under deep‐red illumination. Therefore, we monitored the UV–vis absorption spectra of Os2 and Ce6 in biological media (10% FBS in PBS, phosphate‐buffered saline) using a 740 nm excitation wavelength for one hour and a 770 nm excitation wavelength for 2 h, with the duration of light exposure kept consistent with in vitro phototoxicity tests. […]
# software Fluofit (PicoQuant GmbH, BERLIN, Germany) based on iterative reconvolution using a Levensberg- M arquandt alg oritm, enabling the obtention of multi-exponential profiles (m ainly one or two exponenti als in our cases ).
# Compound Os2 and Ce6 were dissolved in biologically relevant media (PBS solution with 10% FBS) at 50 μ M from the stock solution (10 m M in DMSO). The UV -Vi s spectrum of each complex was recorded from 300 nm to 900 nm at 10- or 20- minutes intervals using BioTek Cytation 5 Cell Imaging Multimode Reader (Agilent […]
# The hydrodynamic diameter was determined using dynamic light scattering (DLS, Malvern ZetaSizer Nano ZS) at 25 ℃ . PBS with 10% FBS solutions were filtered through a 0.22 µM membrane before use. […]
# [2] = test system: mouse colon adenocarcinoma (CT26) cells; test: Resazurin cell viability assay, (photo)cytotoxicity, normoxia; assay type: cell-based
# Experimental: Given that most ICD studies focus on breast, non‐small cell lung carcinoma, and colon cancer, and since ICD was first discovered in mouse colon cancer cells (CT26), we initially tested our compounds on CT26 cells. Cells were incubated with nine different concentrations (mainly from 0.01 to 100 µM) of the compounds for 4 h in the dark. Then, the diluted solutions containing the compounds were replaced by fresh medium, and the cells were either illuminated or kept in the dark for 1 h more. After 2 days, IC50 values (concentration of the agent inhibiting cell growth by 50%) were determined with the resazurin assay, using chlorin e6 (Ce6) and protoporphyrin IX (PpIX) for comparison (Figure S10). The clinically approved chlorin mixture Radachlorin contains ∼80% Ce6, while 5‐aminolevulinic acid (Ameluz and Levulan) and methyl 5‐aminolevulinate (Metvix and Metvixia) serve as precursors of PpIX. Therefore, Ce6 and PpIX were used for comparison purposes.
# (100 U ml−1), streptomycin (100 U ml−1), and 1% L-glutamine. […]
# All cells were incubated at 37 °C in a humidified atmosphere with 5 % CO2.
# Normoxia. The in vitro viability of cells exposed to the complexes was determined using a resazurin assay. C ells were seeded in 96-well plates at densities of 4,000 cells/well for CT26, MC A205 and U-87 MG cells, and 8,000 cells/well for MRC-5 and NIH/3T3 cells. A fter 24 h of growth at 37 °C wit h 5% CO2, the medium was replaced with fresh medium containing various concentrations of the compounds . Following a 4- h incubation in the dark, the medium was refres hed , and the plates were exposed to irradiation usinga LUM OS -BIO photoreactor (At las Photonics).N on- ir rad iated plates were similarly refr eshed with medium and kept in the dark for the same duration. After a 40- h r ecov ery period, a f reshly pr epar ed resazurin solution (0.2 mg/mL) was added to each well, and the plates were left in the dark for 4 h before analysis on a B i o Te k Cytation 5 Cell Imaging Multimode Reader (Agil ent Technologies). […]
smiles,measurement,setting,value
"C=Cc1c(C)c2cc3nc(c(CC(=O)O)c4[nH]c(cc5nc(cc1[nH]2)C(C)=C5CC)c(C)c4C(=O)O)[C@@H](CCC(=O)O)[C@@H]3C [Ce6, chlorin e6]",Photostability (UV-vis absorption spectrum),"[1]; 740 nm excitation, 1 h, 12.60 J/cm2",decreased by nearly half after 50 min
same,Photostability (UV-vis absorption spectrum),"[1]; 770 nm excitation, 2 h, 15.30 J/cm2",did not change
same,PI,"[2]; CT26, 480 nm",>38
same,PI,"[2]; CT26, 510 nm",>70
same,PI,"[2]; CT26, 540 nm",>30
same,PI,"[2]; CT26, 595 nm",>20
same,"PI (phototoxicity index, IC50 dark/IC50 light)","[2]; CT26, 620 nm",>51
same,PI,"[2]; CT26, 645 nm",>25
same,PI,"[2]; CT26, 670 nm",>51
same,PI,"[2]; CT26, 740 nm",>19
same,PI,"[2]; CT26, 770 nm",>4
same,IC50,"[2]; CT26, 770 nm, FWHM 12.5 nm, 15.30 J/cm^2",almost non‐phototoxic
same,IC50,"[2]; Mus musculus, CT26, CT26, dark, normoxia, read-out: IC50 Dark",> 100 µM
same,IC50,"[2]; Mus musculus, CT26, light or radiation study, 1 h, CT26, 620 nm, 1.88 mW/cm^2, 60 min, normoxia, read-out: IC50 620 nm (1 h, 6.75 J/cm^2)",1.98 ± 0.11 µM
same,IC50,"[2]; Mus musculus, CT26, light or radiation study, CT26, 480 nm, FWHM 10 nm, 3.38 J/cm^2, read-out: IC50",2.64 ± 0.42 µM
same,IC50,"[2]; Mus musculus, CT26, light or radiation study, CT26, 510 nm, FWHM 15 nm, 2.44 J/cm^2, read-out: IC50",1.43 ± 0.1 µM
same,IC50,"[2]; Mus musculus, CT26, light or radiation study, CT26, 540 nm, FWHM 15 nm, 9.00 J/cm^2, read-out: IC50",3.33 ± 0.44 µM
same,IC50,"[2]; Mus musculus, CT26, light or radiation study, CT26, 595 nm, FWHM 10 nm, 3.38 J/cm^2, read-out: IC50",5.1 ± 1.44 µM
same,IC50,"[2]; Mus musculus, CT26, light or radiation study, CT26, 645 nm, FWHM 10 nm, 9.00 J/cm^2, read-out: IC50",3.93 ± 0.67 µM
same,IC50,"[2]; Mus musculus, CT26, light or radiation study, CT26, 670 nm, FWHM 10 nm, 13.50 J/cm^2, read-out: IC50",1.97 ± 0.42 µM
same,IC50,"[2]; Mus musculus, CT26, light or radiation study, CT26, 740 nm, FWHM 10 nm, 12.60 J/cm^2, read-out: IC50",5.27 ± 0.46 µM
same,IC50,"[2]; Mus musculus, CT26, light or radiation study, CT26, 770 nm, FWHM 12.5 nm, 15.30 J/cm^2, read-out: IC50",25.4 ± 3.72 µM
